Species on record: Rattus norvegicus
Experiment: DrugMatrix - Regimen: Daily Repeat
Type: toxicity, organism-based, Sprague-Dawley
Parameters: regimen Daily Repeat, gender Male, age 6-8 weeks
Conditions: in vivo, po, route oral GAVAGE, […]; for SODIUM / TOTAL BILIRUBIN / TOTAL PROTEIN / URIC ACID / ALANINE AMINOTRANSFERASE / ALBUMIN / ALKALINE PHOSPHATASE / ASPARTATE AMINOTRANSFERASE / BLOOD UREA NITROGEN / CARBON DIOXIDE / CHLORIDE / CHOLESTEROL / CREATINE PHOSPHOKINASE / CREATININE / GLUCOSE / LACTATE DEHYDROGENASE / LIPASE / PHOSPHORUS / POTASSIUM: tissue Plasma; for ABSOLUTE BASOPHIL / ABSOLUTE EOSINOPHIL / ABSOLUTE LYMPHOCYTE / ABSOLUTE MONOCYTE / ABSOLUTE SEGMENTED NEUTROPHIL / BASOPHIL / EOSINOPHIL / ERYTHROCYTE COUNT / HEMATOCRIT / HEMOGLOBIN / LEUKOCYTE COUNT / LYMPHOCYTE / MEAN CORPUSCULAR HEMOGLOBIN / MEAN CORPUSCULAR HEMOGLOBIN CONCENTRATION / MEAN CORPUSCULAR VOLUME / MONOCYTE / NEUTROPHIL / NUCLEATED RED BLOOD CELLS / PLATELET COUNT: tissue Blood
[1] = 12 mg/kg, 72 h, dose level M1, time 3 day
[2] = 12 mg/kg, 120 h, dose level M1, time 5 day
[3] = 75 mg/kg, 72 h, dose level M2, time 3 day
[4] = 75 mg/kg, 120 h, dose level M2, time 5 day

C#C[C@]1(O)CC[C@H]2[C@@H]3CCC4=CC(=O)CC[C@@H]4[C@H]3CC[C@@]21C [NORETHINDRONE]
SODIUM [1]: 144.57 MEQ/L
TOTAL BILIRUBIN [1]: 0.1 mg/dL
TOTAL PROTEIN [1]: 6.07 G/DL
URIC ACID [1]: 1 mg/dL
ABSOLUTE BASOPHIL [2]: 0 CELLS/uL
ABSOLUTE EOSINOPHIL [2]: 35 CELLS/uL
ABSOLUTE LYMPHOCYTE [2]: 6197.67 CELLS/uL
ABSOLUTE MONOCYTE [2]: 151.67 CELLS/uL
ABSOLUTE SEGMENTED NEUTROPHIL [2]: 315.67 CELLS/uL
BASOPHIL [2]: 0%
EOSINOPHIL [2]: 0.67%
ERYTHROCYTE COUNT [2]: 6.19 x10E6/uL
HEMATOCRIT [2]: 37.27%
HEMOGLOBIN [2]: 14.27 G/DL
LEUKOCYTE COUNT [2]: 6.7 x10E3/uL
LYMPHOCYTE [2]: 92.67%
MEAN CORPUSCULAR HEMOGLOBIN [2]: 23.1 pg
MEAN CORPUSCULAR HEMOGLOBIN CONCENTRATION [2]: 38.3 G/DL
MEAN CORPUSCULAR VOLUME [2]: 60.33 fL
MONOCYTE [2]: 2%
NEUTROPHIL [2]: 4.67%
NUCLEATED RED BLOOD CELLS [2]: 0 /100WBC
PLATELET COUNT [2]: 1179.67 x10E3/uL
ALANINE AMINOTRANSFERASE [2]: 68.33 u/L
ALBUMIN [2]: 4.67 G/DL
ALKALINE PHOSPHATASE [2]: 474.33 u/L
ASPARTATE AMINOTRANSFERASE [2]: 95.67 u/L
BLOOD UREA NITROGEN [2]: 10 mg/dL
CARBON DIOXIDE [2]: 25.67 mmol/L
CHLORIDE [2]: 106.67 MEQ/L
CHOLESTEROL [2]: 26 mg/dL
CREATINE PHOSPHOKINASE [2]: 277.33 u/L
CREATININE [2]: 0.25 mg/dL
GLUCOSE [2]: 177.33 mg/dL
LACTATE DEHYDROGENASE [2]: 205 u/L
LIPASE [2]: 8 u/L
PHOSPHORUS [2]: 12.13 mg/dL
POTASSIUM [2]: 5.86 MEQ/L
SODIUM [2]: 149.4 MEQ/L
TOTAL BILIRUBIN [2]: 0.1 mg/dL
TOTAL PROTEIN [2]: 6.73 G/DL
URIC ACID [2]: 1.83 mg/dL
ABSOLUTE BASOPHIL [3]: 0 CELLS/uL
ABSOLUTE EOSINOPHIL [3]: 0 CELLS/uL
ABSOLUTE LYMPHOCYTE [3]: 4761.67 CELLS/uL
ABSOLUTE MONOCYTE [3]: 38.67 CELLS/uL
ABSOLUTE SEGMENTED NEUTROPHIL [3]: 433 CELLS/uL
BASOPHIL [3]: 0%
EOSINOPHIL [3]: 0%
ERYTHROCYTE COUNT [3]: 5.41 x10E6/uL
HEMATOCRIT [3]: 33.4%
HEMOGLOBIN [3]: 12.87 G/DL
LEUKOCYTE COUNT [3]: 5.23 x10E3/uL
LYMPHOCYTE [3]: 91%
MEAN CORPUSCULAR HEMOGLOBIN [3]: 23.77 pg
MEAN CORPUSCULAR HEMOGLOBIN CONCENTRATION [3]: 38.53 G/DL
MEAN CORPUSCULAR VOLUME [3]: 61.77 fL
MONOCYTE [3]: 0.67%
NEUTROPHIL [3]: 8.33%
NUCLEATED RED BLOOD CELLS [3]: 0 /100WBC
PLATELET COUNT [3]: 1166.67 x10E3/uL
ALANINE AMINOTRANSFERASE [3]: 57 u/L
ALBUMIN [3]: 4.57 G/DL
ALKALINE PHOSPHATASE [3]: 692 u/L
ASPARTATE AMINOTRANSFERASE [3]: 76.67 u/L
BLOOD UREA NITROGEN [3]: 7.67 mg/dL
CARBON DIOXIDE [3]: 30.67 mmol/L
CHLORIDE [3]: 104 MEQ/L
CHOLESTEROL [3]: 29 mg/dL
CREATINE PHOSPHOKINASE [3]: 225 u/L
CREATININE [3]: 0.14 mg/dL
GLUCOSE [3]: 135.67 mg/dL
LACTATE DEHYDROGENASE [3]: 89 u/L
LIPASE [3]: 8 u/L
PHOSPHORUS [3]: 10.6 mg/dL
POTASSIUM [3]: 5.59 MEQ/L
SODIUM [3]: 145.07 MEQ/L
TOTAL BILIRUBIN [3]: 0.17 mg/dL
TOTAL PROTEIN [3]: 6.37 G/DL
URIC ACID [3]: 0.63 mg/dL
ABSOLUTE BASOPHIL [4]: 0 CELLS/uL
ABSOLUTE EOSINOPHIL [4]: 0 CELLS/uL
ABSOLUTE LYMPHOCYTE [4]: 9250.67 CELLS/uL
ABSOLUTE MONOCYTE [4]: 86 CELLS/uL
ABSOLUTE SEGMENTED NEUTROPHIL [4]: 330 CELLS/uL
BASOPHIL [4]: 0%
EOSINOPHIL [4]: 0%
ERYTHROCYTE COUNT [4]: 6.52 x10E6/uL
HEMATOCRIT [4]: 38.67%
HEMOGLOBIN [4]: 14.53 G/DL
LEUKOCYTE COUNT [4]: 9.67 x10E3/uL
LYMPHOCYTE [4]: 95.33%
MEAN CORPUSCULAR HEMOGLOBIN [4]: 22.3 pg
MEAN CORPUSCULAR HEMOGLOBIN CONCENTRATION [4]: 37.6 G/DL
MEAN CORPUSCULAR VOLUME [4]: 59.27 fL
MONOCYTE [4]: 1%
NEUTROPHIL [4]: 3.67%
NUCLEATED RED BLOOD CELLS [4]: 0 /100WBC
PLATELET COUNT [4]: 928.67 x10E3/uL
ALANINE AMINOTRANSFERASE [4]: 49 u/L
ALBUMIN [4]: 5 G/DL
ALKALINE PHOSPHATASE [4]: 440.33 u/L
ASPARTATE AMINOTRANSFERASE [4]: 68.33 u/L
BLOOD UREA NITROGEN [4]: 7 mg/dL
CARBON DIOXIDE [4]: 27 mmol/L
CHLORIDE [4]: 104.33 MEQ/L
CHOLESTEROL [4]: 35 mg/dL
CREATINE PHOSPHOKINASE [4]: 233.67 u/L
CREATININE [4]: 0.18 mg/dL
GLUCOSE [4]: 155.67 mg/dL
LACTATE DEHYDROGENASE [4]: 123.33 u/L
LIPASE [4]: 7.33 u/L
PHOSPHORUS [4]: 11 mg/dL
POTASSIUM [4]: 5.7 MEQ/L
SODIUM [4]: 147.73 MEQ/L
TOTAL BILIRUBIN [4]: 0.13 mg/dL
TOTAL PROTEIN [4]: 7.03 G/DL
URIC ACID [4]: 1.5 mg/dL

Reference: ChEMBL document CHEMBL3885881, “DrugMatrix”
